Legend:
[1] = test system: SeAP reporter gene; assay: Circulating SeAP after intramuscular injection and electrotransfer of plasmids into tibialis cranialis muscle of SCID mice; assay type: in vivo
Description: The 6-week-old SCID mice were first anesthetized with a Ketamine/Xylazine mixture (250 μl/mouse). The various plasmids in solution in 150 mM NaCl were then injected intramuscularly into the tibialis cranialis muscle of the mice. […] The amount of circulating SeAP was regularly monitored by taking blood samples and assaying the phosphatase activity using the Phospha-Light kit (Tropix).

[2] = test system: SeAP reporter gene (plasmid pRDA02); assay: SeAP expression in C2C12 cells, hPPARγ2 inducible system; assay type: cell-based, murine; settings: ratios of columns 3 and 4; 5 and 6; 7 and 8, FIG. 24; BRL49653 at 10^-7 M final
Description: FIG. 24: Measurement of the expression of SeAP 5 days after transfection in C2C12 cells with the following plasmids, with and without the chemical inducer BRL49653 at 10^-7 M final:
The cells used were NIHT3T3 murine fibroblasts (ATCC: CRL-1658). These cells were seeded 24 h before transfection, in 6- or 24-well plates, at a density of 5×10^4 cells/well in 1 ml of medium, or of 2.5×10^5 cells/well in 2 ml. The culture medium used was DMEM™ medium (Life Technologies Inc.) supplemented with 10% of calf serum. The cell cultures were incubated in an incubator at 37° C. in a humid atmosphere and under a partial CO2 pressure of 5%. The transfections were carried out approximately 24 h after seeding, when 50 to 80% confluence was obtained. C2C12 cells were murine myoblast cells (ATCC: CRL1772) and were cultured on a DMEM™ medium (Life Technologies Inc.) supplemented with 10% of fetal calf serum to which L-glutamine, 2 mM final, and antibiotics, 50 units final of penicillin and 50 μg/ml of streptomycin, were added.

SMILES: CN1CCN(c2ccc3[nH]c(-c4ccc5[nH]c(-c6ccc(O)cc6)nc5c4)nc3c2)CC1
- SeAP activity with aptamer ligand ([1]; pXL3010+pSeAPaptazyme, 400 mg/l via the drinking water, Example 14): restored to a significant level

SMILES: CN(CCOc1ccc(CC2SC(=O)NC2=O)cc1)c1ccccn1 (stereo not drawn) [BRL fibrate, rosiglitazone]
- inducibility of the expression of SeAP in the presence of the antisense transcript [2]: a certain inducibility

SMILES: NC[C@@H]1O[C@H](O[C@H]2[C@@H](O)[C@H](O[C@@H]3[C@@H](O)[C@H](N)C[C@H](N)[C@H]3O[C@H]3O[C@H](CN)[C@@H](O)[C@H](O)[C@H]3N)O[C@@H]2CO)[C@H](N)[C@@H](O)[C@@H]1O [neomycin B]
- expression of SeAP with aptamer ligand ([1]; pXL3010+pSeAPaptamerAS, IP injection approximately 500 μg/mouse, Example 13): can be restored

Reference: US20020166132A1, “System for regulating in vivo the expression of a transgene by conditional inhibition” (priority 2000, published 2002)
